“Also recorded” adds a separate entry of the source.

For experiment [1], the system named is interleukin-6 (IL-6) produced by LPS activated neutrophils. The experiment in a line: IL-6 production by LPS activated neutrophils (ELISA). The conditions noted are these: for effect on IL-6, in words / inhibition of IL-6 production: over the concentrations tested; for inhibition of IL-6 production: concentration not given. It is filed as cell-based, rat. On the procedure: (§1) The anti-inflammatory properties of the cationic fraction, IDP, and the combination of IDP with chondroitin and glucosamine were determined by measuring their ability to inhibit the production of the inflammatory compounds, tumor necrosis factor-α (TNF-α) and interleukin-6 (IL-6) produced by LPS activated neutrophils. […] Neutrophils were isolated from rat blood and incubated in the presence of LPS. LPS is derived from bacterial cell walls and is used to mimic a 'bacterial infection'. […] Two of these cytokine are TNF-α and IL-6. The concentrations of both cytokines produced by neutrophils exposed to LPS and the various test substances are summarised graphically in FIGS. 1 and 2 respectively. […] Aliquots from each set of triplicates were combined, and duplicates assayed for cytokine concentrations. The plate blank was subtracted from each individual data point. A VersaMax 96-well plate reader was used to colorimetrically assess the production of TNF-α and IL-6 as determined by the ELISA, using Rat TNF-α ELISA kit, R&D Systems, Cat # RTA00, and Rat IL-6 ELISA kit, R&D Systems, Cat # […]. The average cytokine concentration, standard deviation and standard error were calculated for each data set (sample and concentration). Preliminary statistical significance was assessed using independent Student t-tests at α≦0.05.
Background: An ELISA detects its analyte on a solid surface through an enzyme-linked reagent.

For experiment [2], the system named is tumor necrosis factor-α (TNF-α) produced by LPS activated neutrophils. Nature of the experiment: TNF-α production by LPS activated neutrophils (ELISA). In kind it is cell-based, rat. The method, then: as §1
Setting [3] is: 300 μg/ml, relative to LPS only control.
Where [4] appears, read: Rattus norvegicus, Neutrophil, 100 μg/ml, relative to LPS only control.
Where [5] appears, read: Rattus norvegicus, Neutrophil, 300 μg/ml, relative to LPS only control.
Setting [6] is: Rattus norvegicus, Neutrophil, read-out: IL-6 % Inhibition.
Where [7] appears, read: Rattus norvegicus, Neutrophil, read-out: TNF-α % Inhibition.
[8] abbreviates: Rattus norvegicus, Neutrophil, 4 μg/ml, relative to LPS only control.
The mark [9] stands for this setting: Rattus norvegicus, Neutrophil, 12 μg/ml, relative to LPS only control.
The mark [10] stands for this setting: Rattus norvegicus, Neutrophil, 1 μg/ml, relative to LPS only control.
Where [11] appears, read: Rattus norvegicus, Neutrophil, 10 μg/ml, relative to LPS only control.

With `CC(=O)Oc1ccccc1C(=O)O` [Aspirin, acetylsalicylic acid], the “dose response on IL-6, in words” value in experiment [1] is given as “characteristic dose response”. Moreover, the “IL-6” value in experiment [1] (100 μg/ml) is 63.2 pg/mL; in experiment [1] (300 μg/ml), 0 pg/mL. For the same compound, in experiment [1] (setting [3]), the “IL-6 % Inhibition” value was “completely inhibited”. For the same compound, the inhibition (as a rule, the drop in the measured response relative to a control, in per cent) at 100 µg/mL turned out to be 78.7% in experiment [1] (setting [4]) and 42.2% in experiment [2] (setting [4]). For the same compound, the figures for the inhibition at 300 µg/mL in experiment [1] (setting [5]) and in experiment [2] (setting [5]) were 100% and 64%, respectively. Moreover, in experiment [1], the “effect on IL-6, in words” value is “reducing both TNF-α and IL-6 levels significantly”. Also, the “dose response on TNF-α, in words” value in experiment [2] is “characteristic dose response”. The “TNF-α” value in experiment [2] (100 μg/ml) is 159.17 pg/mL; in experiment [2] (300 μg/ml), 99.45 pg/mL. Besides, the “TNF-α % Inhibition” value in experiment [2] (setting [3]) worked out at 63.9%. In addition, in experiment [2] (over the concentrations tested), the “effect on TNF-α, in words” value is “reducing both TNF-α and IL-6 levels significantly”.
Turning to `CCN(CC)CCCC(C)Nc1ccnc2cc(Cl)ccc12` (stereo not shown) [Chloroquine], the “IL-6” value in experiment [1] (50 μM) and in experiment [1] (100 μM) was 0 pg/mL each time. Also, the inhibition at 50 µM in experiment [1] (setting [6]) and in experiment [2] (setting [7]) was 100% each time. For the same compound, the inhibition at 100 µM in experiment [1] (setting [6]) and in experiment [2] (setting [7]) was 100% in each case. In experiment [1], the “effect on IL-6, in words” value is on record as “completely inhibiting; also recorded: completely inhibited”. The “TNF-α” value in experiment [2] (50 μM) and in experiment [2] (100 μM) was 0 pg/mL throughout. Moreover, the “effect on TNF-α, in words” value in experiment [2] (over the concentrations tested) was “completely inhibiting; also recorded: completely inhibited”.
As to `COc1cc(/C=C/C(=O)CC(=O)/C=C/c2ccc(O)c(OC)c2)ccc1O` [Curcumin, curcumin], the “dose response on IL-6, in words” value in experiment [1] is recorded as “no apparent dose effect”. The “IL-6” value turned out to be 38.65 pg/mL in experiment [1] (4 μg/ml) and 31.14 pg/mL in experiment [1] (12 μg/ml). The inhibition at 4 µg/mL is 87% in experiment [1] (setting [8]) and 46.7% in experiment [2] (setting [8]). Further, the values for the inhibition at 12 µg/mL in experiment [1] (setting [9]) and in experiment [2] (setting [9]) were 89.5% and 34.4%, respectively. Moreover, in experiment [1], the “effect on IL-6, in words” value is given as “close to complete inhibition”. Moreover, the “inhibition of IL-6 production” value in experiment [1] was determined as 90%. Also, the “dose response on TNF-α, in words” value in experiment [2] is “no apparent dose effect”. The “TNF-α” value in experiment [2] (4 μg/ml) worked out at 146.71 pg/mL; in experiment [2] (12 μg/ml), 180.66 pg/mL. In addition, the “inhibition of TNF-α production” value in experiment [2] (over the concentrations tested, concentration not given) was “approximately 50%”.
On to `O=C(O)Cc1ccccc1Nc1c(Cl)cccc1Cl` [Diclofenac], for which, in experiment [1], the “dose response on IL-6, in words” value was “inverse dose response”. The results for the “IL-6” value in experiment [1] (1 μg/ml), in experiment [1] (10 μg/ml) and in experiment [1] (100 μg/ml) were 78.39 pg/mL, 90.55 pg/mL and 185.71 pg/mL, respectively. Also, the inhibition at 1 µg/mL in experiment [1] (setting [10]) came out at 73.6%; in experiment [2] (setting [10]) it was 52%. In addition, the inhibition at 10 µg/mL was 69.5% in experiment [1] (setting [11]) and 44.8% in experiment [2] (setting [11]). Moreover, the results for the inhibition at 100 µg/mL in experiment [1] (setting [4]) and in experiment [2] (setting [4]) were 37.4% and -24.4%, respectively. The “inhibition of IL-6 production” value in experiment [1] (listed as Voltaren (Diclofenac)) is 74-38%. Moreover, the “dose response on TNF-α, in words” value in experiment [2] was “inverse dose response”. Moreover, the “TNF-α” value was 132.01 pg/mL in experiment [2] (1 μg/ml); 151.97 pg/mL in experiment [2] (10 μg/ml); 342.46 pg/mL in experiment [2] (100 μg/ml); 342 pg/mL in experiment [2] (100 μg/ml, listed as Voltaren (Diclofenac)). Moreover, the “TNF-α % Inhibition” value in experiment [2] (1 μg/ml, relative to LPS only control) is given as 52.1%. Besides, the “effect on TNF-α, in words” value in experiment [2] (100 μg/ml) is recorded as “appeared to stimulate TNF-α”.

These data come from patent US20120244226A1, “TREATMENT COMPOSITION AND METHOD” (DEC INTERNATIONAL NZ LIMITED, priority 2009, published 2012).
